According to article PMC4547793, “Trichodysplasia spinulosa-Associated Polyomavirus Uses a Displaced Binding Site on VP1 to Engage Sialylated Glycolipids” (PLoS Pathogens, 2015):

What was measured:
Assay type in all cases: binding
TSPyV VP1 [1] = biological target: T1, TSPyV VP1 (Trichodysplasia spinulosa-associated polyomavirus, UniProt E2ESL7); assay: X-ray crystal structure, soaked ([…] Å); settings: 10 mM glycan, 15 min soak of native crystals, reservoir pH 5.0; BC2-loop site with ccw DE-loop
T1 construct: N- and C-terminally truncated VP1 (aa 31-304), pET28b, E. coli BL21(DE3); unassembled homopentamer

TSPyV VP1 [2] = biological target: T1, TSPyV VP1; assay: X-ray co-crystal structure ([…] Å); settings: 10 mM glycan, co-crystallization, 20 °C, reservoir pH 5.0; BC2-loop site with ccw DE-loop
TSPyV VP1 [3] = biological target: T1, TSPyV VP1; assay: X-ray co-crystal structure ([…] Å); also STD NMR; settings: 10 mM glycan, co-crystallization, 20 °C, reservoir pH 5.0; STD NMR pH 7.4, 288 K; BC2-loop site with ccw DE-loop

Q: `CC(=O)N[C@H]1[C@H]([C@H](O)[C@H](O)CO)O[C@@](O[C@H]2[C@@H](O)[C@@H](CO)O[C@@H](O[C@H]3[C@H](O)[C@@H](O)C(O)O[C@@H]3CO)[C@@H]2O)(C(=O)O)C[C@@H]1O` (stereo partly drawn) [3’SL] was tested. Which “X-ray crystal structure, soaked (1.55 Å)” value (TSPyV VP1 [1]) did it give?
A: The value was 4U62 (TSPyV VP1-3’SL).

Q: `CC(=O)N[C@H]1[C@H]([C@H](O)[C@H](O)CO)O[C@@](OC[C@H]2O[C@@H](O[C@H]3[C@H](O)[C@@H](O)C(O)O[C@@H]3CO)[C@H](O)[C@@H](O)[C@H]2O)(C(=O)O)C[C@@H]1O` (stereo partly drawn) [6’SL] was tested. Which “X-ray co-crystal structure (1.65 Å)” value (TSPyV VP1 [2]) did it give?
A: Its value is 4U61 (TSPyV VP1-6’SL).

Q: `CC(=O)N[C@H]1[C@H](O[C@@H]2[C@H](O[C@]3(C(=O)O)C[C@H](O)[C@@H](NC(C)=O)[C@H]([C@H](O)[C@H](O)CO)O3)[C@@H](O)[C@H](O[C@H]3[C@H](O)[C@@H](O)C(O)O[C@@H]3CO)O[C@@H]2CO)O[C@H](CO)[C@H](O)[C@@H]1O[C@@H]1O[C@H](CO)[C@H](O)[C@H](O)[C@H]1O` (stereo partly drawn) [GM1 glycan] was tested. Which “X-ray co-crystal structure (1.50 Å); also STD NMR” value (TSPyV VP1 [3]) did it give?
A: The value was 4U60 (TSPyV VP1-GM1 glycan).
